pIC50, pKi: −log10 of the molar value. Counter-ions that a name gives are not always drawn. Like-named read-outs stand apart in the source and are kept apart here.

As a reminder, the pIC50 is the negative decadic logarithm of the IC50, by convention in mol/L. As a reminder, the pKi is the negative decadic logarithm of the Ki, by convention in mol/L.

For assay [1], the system named is leukotriene pathway in human whole blood (LTB4). Kind of assay: Human whole blood assay (LTB4 after calcium ionophore A23187 stimulation). Conditions: human whole blood diluted 1:1 in RPMI, 15 min pre-incubation, A23187 7 μg/mL for 30 min at 37° Celsius. It counts as cell-based. In short, it runs like this:
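Heparinised human whole blood, diluted 1:1 in RPMI, was preincubated with compound for 15 min at 37° C. before stimulation with A23187 (7 μg/mL) for 30 min. Plasma LTB4 was measured by immunoassay kit and IC50 obtained by 4-parameter fit; single replicate per plate, blood from at least one donor.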

Assay [2] concerns the target human FLAP (Homo sapiens (Human), UniProt P20292). Kind of assay: FLAP binding assay (HTRF format). To be noted: read-out: FLAP Binding wild type HTRF Ki. In short, it runs like this: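 His6-tagged human FLAP in Sf-9 membranes competed against a FITC-labelled indole FLAP modulator in HTRF format; 2 h reaction, read as HTRF ratio. Ki and IC50 from averaged duplicate ratios over 2–20 runs of two plates each; parenthetical numbers give run count.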
A general note: Time-resolved FRET reads energy transfer from a long-lived donor to a nearby acceptor.

Setting [3] is: human FLAP-containing Sf-9 membranes, 25 nM HTRF ligand, 2 h, average of runs.

human FLAP, sequence (P20292 whole entry): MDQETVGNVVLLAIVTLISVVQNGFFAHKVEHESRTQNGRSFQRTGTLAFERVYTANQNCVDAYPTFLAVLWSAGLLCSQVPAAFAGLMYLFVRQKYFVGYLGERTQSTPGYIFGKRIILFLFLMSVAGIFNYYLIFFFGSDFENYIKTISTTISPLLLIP

As to `CCC(CC)(Cc1nc2ccc(OCc3ccn(C)n3)cc2n1Cc1ccc(OC(F)(F)F)cc1F)C(=O)O` [Example 56, 2-Ethyl-2-({1-[2-fluoro-4-(trifluoromethoxy)benzyl]-6-[(1-methyl-1H-pyrazol-3-yl)methoxy]-1H-benzimidazol-2-yl}methyl)butanoic acid], the pIC50 in assay [1] (Homo sapiens) was around 5.70. Moreover, in assay [2] (setting [3]), the pKi was 7.34.

With `Cc1ccc(COc2cc(F)c3nc(CC4(C(=O)O)CCCC4)n(Cc4ccc(Br)cc4)c3c2)nc1` [Example 61, 1-({1-(4-Bromobenzyl)-4-fluoro-6-[(5-methylpyridin-2-yl)methoxy]-1H-benzimidazol-2-yl}methyl)cyclopentanecarboxylic acid], the negative-log IC50 (pIC50) in assay [1] (Homo sapiens) was 5.64. For the same molecule, the pKi in assay [2] (setting [3]) is 8.22.

As to `CCC(CC)(Cc1nc2c(F)cc(OCc3ccc(C)cn3)cc2n1Cc1ccc(Br)cc1)C(=O)O` [Example 65, 2-({1-(4-Bromobenzyl)-4-fluoro-6-[(5-methylpyridin-2-yl)methoxy]-1H-benzimidazol-2-yl}methyl)-2-ethylbutanoic acid as the TFA salt], the pIC50 in assay [1] (Homo sapiens) was 5.95. Moreover, the negative-log Ki (pKi) in assay [2] (setting [3]) was 8.22.

As for `CCC(CC)(Cc1nc2c(F)cc(OCc3ccc(C)cn3)cc2n1Cc1ccc(C)cc1)C(=O)O` [Example 71, 2-Ethyl-2-({4-fluoro-1-(4-methylbenzyl)-6-[(5-methylpyridin-2-yl)methoxy]-1H-benzimidazol-2-yl}methyl)butanoic acid as the TFA salt], the pIC50 in assay [1] (Homo sapiens) is 5.47. Further, in assay [2] (setting [3]), the pKi was 7.31.

For `Cc1ccc(COc2cc(F)c3nc(CC4(C(=O)O)CCCC4)n(Cc4ccc(OC(F)(F)F)cc4)c3c2)nc1` [Example 72, 1-({4-Fluoro-6-[(5-methylpyridin-2-yl)methoxy]-1-[4-(trifluoromethoxy)benzyl]-1H-benzimidazol-2-yl}methyl)cyclopentanecarboxylic acid as the TFA salt], in assay [1], the pIC50 is 5.71. In addition, the pKi in assay [2] is 7.22.

As for `Cc1ccc(Cn2c(CC3(C(=O)O)CCCC3)nc3c(F)cc(OCc4ccc(C)cn4)cc32)cc1` [Example 73, 1-({4-Fluoro-1-(4-methylbenzyl)-6-[(5-methylpyridin-2-yl)methoxy]-1H-benzimidazol-2-yl}methyl)cyclopentanecarboxylic acid as the TFA salt], in assay [1] (Homo sapiens), the pIC50 is 5.49. In assay [2] (setting [3]), the pKi was 7.28.

Take `Cc1ccc(COc2cc(Cl)c3nc(CC4(C(=O)O)CCCC4)n(Cc4ccc(Br)cc4)c3c2)nc1` [Example 78, 1-({1-(4-Bromobenzyl)-4-chloro-6-[(5-methylpyridin-2-yl)methoxy]-1H-benzimidazol-2-yl}methyl)cyclopentanecarboxylic acid]: in assay [1] (Homo sapiens), the pIC50 was 4.85. Also, the pKi in assay [2] (setting [3]) is 7.62.

Turning to `Cc1ccc(COc2cc(Cl)c3nc(CC(C)(C)C(=O)O)n(Cc4ccc(Br)cc4)c3c2)nc1` [Example 79, 3-{1-(4-Bromobenzyl)-4-chloro-6-[(5-methylpyridin-2-yl)methoxy]-1H-benzimidazol-2-yl}-2,2-dimethylpropanoic acid], the pIC50 in assay [1] (Homo sapiens) is around 4.70. In assay [2] (setting [3]), the pKi is 7.07.

On to `CCC(CC)(Cc1nc2ccc(OCc3ccn(C)n3)cc2n1Cc1ccc(OC(F)(F)F)cc1C)C(=O)O` [Example 92], for which, in assay [1] (Homo sapiens), the pIC50 is 5.84. Besides, in assay [2] (setting [3]), the pKi was around 6.60.

For the molecule `CCC(CC)(Cc1nc2ccc(OCc3ccc(C)cn3)cc2n1Cc1ccc(OC(F)(F)F)cc1C)C(=O)O` [Example 105], the pIC50 in assay [1] (Homo sapiens) is 5.20. Also, in assay [2] (setting [3]), the pKi is 7.40.

On to `Cc1ccc(Cn2c(CC(C)(C)C(=O)O)nc3ccc(OCc4ncc(C)cc4F)cc32)c(F)c1` [Example 127, 3-{1-(2-Fluoro-4-methylbenzyl)-6-[(3-fluoro-5-methylpyridin-2-yl)methoxy]-1H-benzimidazol-2-yl}-2,2-dimethylpropanoic acid], for which the pIC50 in assay [1] (Homo sapiens) is 5.67. In assay [2] (setting [3]), the pKi is 6.80.

With `Cc1cnc(COc2ccc3nc(CC(C)(C)C(=O)O)n(Cc4ccc(Br)cc4)c3c2)c(F)c1` [Example 128, 3-{1-(4-Bromobenzyl)-6-[(3-fluoro-5-methylpyridin-2-yl)methoxy]-1H-benzimidazol-2-yl}-2,2-dimethylpropanoic acid], the pIC50 in assay [1] (Homo sapiens) was 5.88. Moreover, the pKi in assay [2] (setting [3]) was 8.07.

As for `Cc1cnc(COc2ccc3nc(CC(C)(C)C(=O)O)n(Cc4c(F)cc(Br)cc4F)c3c2)c(F)c1` [Example 130, 3-{1-(4-Bromo-2,6-difluorobenzyl)-6-[(3-fluoro-5-methylpyridin-2-yl)methoxy]-1H-benzimidazol-2-yl}-2,2-dimethylpropanoic acid], the pIC50 in assay [1] (Homo sapiens) is 6.08. For the same molecule, the pKi in assay [2] (setting [3]) was 7.82.

Regarding `Cc1cnc(COc2ccc3nc(CC(C)(C)C(=O)O)n(Cc4ccc(OC(F)(F)F)cc4F)c3c2)c(F)c1` [Example 131, 3-{6-[(3-Fluoro-5-methylpyridin-2-yl)methoxy]-1-[2-fluoro-4-(trifluoromethoxy)benzyl]-1H-benzimidazol-2-yl}-2,2-dimethylpropanoic acid], the pIC50 in assay [1] (Homo sapiens) was 5.41. In addition, the pKi in assay [2] (setting [3]) was 7.62.

Regarding `CCC(CC)(Cc1nc2ccc(OCc3ncc(C)cc3F)cc2n1Cc1ccc(Br)cc1)C(=O)O` [Example 136, 2-({1-(4-Bromobenzyl)-6-[(3-fluoro-5-methylpyridin-2-yl)methoxy]-1H-benzimidazol-2-yl}methyl)-2-ethylbutanoic acid], the pIC50 in assay [1] (Homo sapiens) was 6.32. Also, the pKi in assay [2] (setting [3]) is 9.19.

`Cc1cnc(COc2ccc3nc(CC(C)(C)C(=O)O)n(Cc4ccc(-c5ccc(C(F)(F)F)cc5)cc4F)c3c2)c(F)c1` [Example 141, 3-(6-[(3-Fluoro-5-methylpyridin-2-yl)methoxy]-1-{[3-fluoro-4′-(trifluoromethyl)biphenyl-4-yl]methyl}-1H-benzimidazol-2-yl)-2,2-dimethylpropanoic acid]: the negative logarithm of the IC50 (pIC50) in assay [1] (Homo sapiens) is 6.12. Besides, in assay [2] (setting [3]), the pKi was 8.29.

For the molecule `Cc1cnc(COc2ccc3nc(CC(C)(C)C(=O)O)n(Cc4ccc(-c5ccc(C(F)(F)F)cc5)cc4)c3c2)c(F)c1` [Example 142, 3-(6-[(3-Fluoro-5-methylpyridin-2-yl)methoxy]-1-{[4′-(trifluoromethyl)biphenyl-4-yl]methyl}-1H-benzimidazol-2-yl)-2,2-dimethylpropanoic acid], in assay [1] (Homo sapiens), the pIC50 was 6.01. The pKi in assay [2] (setting [3]) was 8.13.

In the case of `Cc1cnc(COc2ccc3nc(CC(C)(C)C(=O)O)n(Cc4cccc(-c5ccc(C(F)(F)F)cc5)c4)c3c2)c(F)c1` [Example 143, 3-(6-[(3-Fluoro-5-methylpyridin-2-yl)methoxy]-1-{[4′-(trifluoromethyl)biphenyl-3-yl]methyl}-1H-benzimidazol-2-yl)-2,2-dimethylpropanoic acid], the pIC50 in assay [1] (Homo sapiens) is 5.74. Also, in assay [2] (setting [3]), the pKi is 7.89.

Consider `CCC(CC)(Cc1nc2ccc(OCc3ccc(C)cn3)cc2n1Cc1cccc(-c2ccc(C(F)(F)F)cc2)c1)C(=O)O` [Example 149, 2-ethyl-2-((6-((5-methylpyridin-2-yl)methoxy)-1-((4′-(trifluoromethyl)-[1,1′-biphenyl]-3-yl)methyl)-1H-benzo[d]imidazol-2-yl)methyl)butanoic acid], for which the negative-log IC50 (pIC50) in assay [1] (Homo sapiens) was 5.41. The pKi in assay [2] (setting [3]) was 7.44.

As to `CCC(CC)(Cc1nc2ccc(OCc3ncc(C)cc3F)cc2n1Cc1ccc(N2CCC(C)CC2)cc1)C(=O)O` [Example 180, 2-Ethyl-2-({6-[(3-fluoro-5-methylpyridin-2-yl)methoxy]-1-[4-(4-methylpiperidin-1-yl)benzyl]-1H-benzimidazol-2-yl}methyl)butanoic acid], the pIC50 in assay [1] (Homo sapiens) is 6.25. Further, the pKi in assay [2] (setting [3]) is 8.52.

As to `CCC(CC)(Cc1nc2ccc(OCc3ncc(C)cc3F)cc2n1Cc1ccc(N2CCC(C)CC2)cc1F)C(=O)O` [Example 181, 2-Ethyl-2-({1-[2-fluoro-4-(4-methylpiperidin-1-yl)benzyl]-6-[(3-fluoro-5-methylpyridin-2-yl)methoxy]-1H-benzimidazol-2-yl}methyl)butanoic acid], the pIC50 in assay [1] (Homo sapiens) is 7.32. The pKi in assay [2] (setting [3]) is 8.28.

As to `CCC(CC)(Cc1nc2ccc(OCc3ncc(C)cc3F)cc2n1Cc1ccc(N2CCC(F)CC2)cc1)C(=O)O` [Example 182, 2-Ethyl-2-({6-[(3-fluoro-5-methylpyridin-2-yl)methoxy]-1-[4-(4-fluoropiperidin-1-yl)benzyl]-1H-benzimidazol-2-yl}methyl)butanoic acid], the pIC50 in assay [1] (Homo sapiens) was 6.32. In assay [2] (setting [3]), the pKi is 7.96.

`Cc1cnc(COc2ccc3nc(CC(C)(C)C(=O)O)n(Cc4ccc(N5CC(C(F)(F)F)C5)cc4F)c3c2)c(F)c1` [Example 183, 3-(6-[(3-Fluoro-5-methylpyridin-2-yl)methoxy]-1-{2-fluoro-4-[3-(trifluoromethyl)azetidin-1-yl]benzyl}-1H-benzimidazol-2-yl)-2,2-dimethylpropanoic acid]: the pIC50 in assay [1] (Homo sapiens) is 6.06. Also, the pKi in assay [2] (setting [3]) was 7.89.

Consider `Cc1cnc(COc2ccc3nc(CC(C)(C)C(=O)O)n(Cc4ccc(N5CCC(C(C)(C)C)CC5)cc4)c3c2)c(F)c1` [Example 184, 3-{1-[4-(4-tert-Butylpiperidin-1-yl)benzyl]-6-[(3-fluoro-5-methylpyridin-2-yl)methoxy]-1H-benzimidazol-2-yl}-2,2-dimethylpropanoic acid], for which, in assay [1] (Homo sapiens), the pIC50 is 6.10. Further, in assay [2] (setting [3]), the pKi is 7.82.

For `Cc1cnc(COc2ccc3nc(CC(C)(C)C(=O)O)n(Cc4ccc(N5CCC(F)CC5)cc4F)c3c2)c(F)c1` [Example 186], in assay [1] (Homo sapiens), the pIC50 was 6.15. The pKi in assay [2] (setting [3]) is 7.52.

In the case of `CCC(CC)(Cc1nc2ccc(OCc3ccn(C)n3)cc2n1Cc1ccc(-c2ccc(C(F)(F)F)cc2)cc1F)C(=O)O` [Example 187], the pIC50 in assay [1] (Homo sapiens) was 6.44. The pKi in assay [2] (setting [3]) was 8.14.
